# Read-outs that look alike come from different tables or passages of the source.
# Columns and labels:
# [1] = test system: non-growing S. aureus DSM2569; assay: Dose-dependent killing analysis (CFU spot-plating) of stationary-phase S. aureus; assay type: cell-based, Staphylococcus aureus; settings: at 10 µM, 24 h treatment
# Method: To determine the spectrum of activity of the compounds that were effective against non-growing UPEC, we further assessed their efficacy against the well-characterized Gram-negative and Gram-positive reference strains P. aeruginosa DSM1117 and S. aureus DSM2569, respectively. The cultures were grown and treated for 24 h in 1:4 CA-MHB (pH 7.4). […].
# For survival analysis, bacteria were cultivated as described for the dose–response dilution-regrowth assay. Assays with UPEC were conducted at the CBCS screening facility using 96-well plates with a 200 μl sample volume, and compounds were dispensed using the Echo® (Labcyte) system. P. aeruginosa and S. aureus samples were treated according to the protocol used for the dilution-regrowth experiments. Treated samples were serially diluted 10-fold in PBS, and 10 μl drops were spot-plated onto rectangular LB agar plates using either a Beckman NXP robot (for UPEC) or an Integra VIAFLO96 electronic pipette (for P. aeruginosa and S. aureus). The LB agar plates were incubated overnight at 37 °C and scanned. Colonies were counted at the spots of the lowest dilution where individual colonies could be accurately distinguished. Each colony was manually marked on a separate image layer using the GNU Image Manipulation Program, and counted using NIST’s Integrated Colony Enumerator (NICE 1.4) software. The experiments were performed in three biological replicates.
# [2] = test system: non-growing UPEC CFT073; assay: Dilution-regrowth assay (screen, hit validation, dose-response) on stationary-phase UPEC; assay type: cell-based, Escherichia coli; settings: for EC50: Escherichia coli
# In short: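 Regrowth (OD600 after 6 h, 37 °C) of diluted non-growing CFT073, following 24 h compound treatment of 24 h stationary cultures, defines activity relative to untreated control. Screen at 20 µM, validation at 20, 10, 5 µM (duplicates), dose–response in three biological replicates fitted by five-parameter logistic.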
# [3] = test system: S. aureus DSM2569; assay: MIC, standard microdilution assay, growing S. aureus; assay type: cell-based, Staphylococcus aureus; settings: Staphylococcus aureus, DSM2569; S. aureus; CA-MHB pH 7.4; read-out: MIC (μM) CA-MHB
# In short: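 MICs come from microdilution in CA-MHB/40 mM HEPES pH 7.4 for the UPEC, Pseudomonas and Staphylococcus strains, and in TSB for Shigella. UPEC also tested in LPM/30 mM MES pH 5.5.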
smiles,measurement,setting,value
CCCCC(CC)CNC(=N)NC(=N)NCCCCCCNC(=N)NC(=N)NCC(CC)CCCC (centres unmarked) [Alexidine],reduction of non-growing S. aureus,[1],below the limit of detection
same,"Regrowth, OD600 at 6h or 8h after dilution into drug-free medium (average)","[2]; E. coli in 1:4 CA-MHB (pH 7.4), drug concentration 0.25",0.643
same,"Regrowth, OD600 at 6h or 8h after dilution into drug-free medium (average)","[2]; E. coli in 1:4 CA-MHB (pH 7.4), drug concentration 0.5",0.630
same,"Regrowth, OD600 at 6h or 8h after dilution into drug-free medium (average)","[2]; E. coli in 1:4 CA-MHB (pH 7.4), drug concentration 1",0.631
same,"Regrowth, OD600 at 6h or 8h after dilution into drug-free medium (average)","[2]; E. coli in 1:4 CA-MHB (pH 7.4), drug concentration 2.5",0.636
same,"Regrowth, OD600 at 6h or 8h after dilution into drug-free medium (average)","[2]; E. coli in 1:4 CA-MHB (pH 7.4), drug concentration 5",0.622
same,"Regrowth, OD600 at 6h or 8h after dilution into drug-free medium (average)","[2]; E. coli in 1:4 CA-MHB (pH 7.4), drug concentration 10",0.568
same,"Regrowth, OD600 at 6h or 8h after dilution into drug-free medium (average)","[2]; E. coli in 1:4 CA-MHB (pH 7.4), drug concentration 30",0.074
same,"Regrowth, OD600 at 6h or 8h after dilution into drug-free medium (average)","[2]; E. coli in LPM (pH 5.5), drug concentration 0.25",0.604
same,"Regrowth, OD600 at 6h or 8h after dilution into drug-free medium (average)","[2]; E. coli in LPM (pH 5.5), drug concentration 0.5",0.591
same,"Regrowth, OD600 at 6h or 8h after dilution into drug-free medium (average)","[2]; E. coli in LPM (pH 5.5), drug concentration 1",0.602
same,"Regrowth, OD600 at 6h or 8h after dilution into drug-free medium (average)","[2]; E. coli in LPM (pH 5.5), drug concentration 2.5",0.604
same,"Regrowth, OD600 at 6h or 8h after dilution into drug-free medium (average)","[2]; E. coli in LPM (pH 5.5), drug concentration 5",0.576
same,"Regrowth, OD600 at 6h or 8h after dilution into drug-free medium (average)","[2]; E. coli in LPM (pH 5.5), drug concentration 10",0.067
same,"Regrowth, OD600 at 6h or 8h after dilution into drug-free medium (average)","[2]; E. coli in LPM (pH 5.5), drug concentration 30",0.069
same,EC50,"[2]; 1:4 CA-MHB pH 7.4 (black curve), medium assigned by comparison with Dataset 1, read-out: EC50 (regrowth inhibition curve, Fig. S4)",23.4 µM
same,EC50,"[2]; E. coli, pH 7.4, regrowth delay of non-growing bacteria, 1:4 CA-MHB, 24 h treatment, OD600 6 h after 2500-fold dilution, read-out: EC50",15.6 µM
same,EC50,"[2]; LPM pH 5.5 (red curve), medium assigned by comparison with Dataset 1, read-out: EC50 (regrowth inhibition curve, Fig. S4)",7.18 µM
same,activity against non-growing UPEC in LPM (pH 5.5) compared to 1:4 CA-MHB (pH 7.4),"[2]; regrowth delay and killing, Figs. 2 and 3",potentiated by the low pH
same,MIC,[3],1 µM

# Reference: PMC11992225, “Antibacterial compounds against non-growing and intracellular bacteria” (npj Antimicrobials and Resistance, 2025)
